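Values below derive from 48-hour exposures of cells grown in 96-well plates, with endpoints linearly interpolated between the two concentrations bracketing the appropriate inhibition level. The concentration for 50% growth inhibition is given as GI50.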 Activity calls are given as the source filed them. Cut-off read from the data, not from the text of the source: active = GI50 up to about 1.1 µM and inactive = higher.
Legend:
Test in all cases: NCI anticancer screen, dose series, 48 h
HCT-15 = system: HCT-15
HT-29 = system: HT-29
SF-295 = system: SF-295
SK-MEL-5 = system: SK-MEL-5
TK-10 = system: TK-10
SK-MEL-2 = system: SK-MEL-2
Malme-3M = system: Malme-3M
OVCAR-5 = system: OVCAR-5
786-0 = system: 786-0
T47D = system: T47D
OVCAR-4 = system: OVCAR-4
NCI-H226 = system: NCI-H226
CCRF-CEM = system: CCRF-CEM
LOX IMVI = system: LOX IMVI
UACC-62 = system: UACC-62
UACC-257 = system: UACC-257
EKVX = system: EKVX
PC-3 = system: PC-3
A549 = system: A549
COLO 205 = system: COLO 205

Row | SMILES | GI50 (HCT-15) [µM] | GI50 (HT-29) | GI50 (SF-295) | GI50 (SK-MEL-5) | GI50 (TK-10) | GI50 (SK-MEL-2) | GI50 (Malme-3M) | GI50 (OVCAR-5) | GI50 (786-0) | GI50 (T47D) | GI50 (OVCAR-4) | GI50 (NCI-H226) | GI50 (CCRF-CEM) | GI50 (LOX IMVI) | GI50 (UACC-62) | GI50 (UACC-257) | GI50 (EKVX) | GI50 (PC-3) | GI50 (A549) | GI50 (COLO 205)
1 | O=c1onc2n1-c1cc(Cl)ccc1C(=S)N1CSCC21 (stereo not given) | > 100 | > 100 µM (inactive) | > 100 µM (inactive) | > 100 µM (inactive) | > 100 µM (inactive) | > 100 µM (inactive) | > 100 µM (inactive) | > 100 µM (inactive) | > 100 µM (inactive) | > 100 µM (inactive) | > 100 µM (inactive) | > 100 µM (inactive) | 55.8 µM (inactive) | > 100 µM (inactive) | > 100 µM (inactive) | > 100 µM (inactive) | > 100 µM (inactive) | > 100 µM (inactive) | > 100 µM (inactive) | > 100 µM (inactive)
2 | CCOC(=O)N1CCc2cc(OC)c(OC)c3c2c1cc1cc(OC)c(OC)cc13 | 0.914 | 0.492 µM (active) | 0.927 µM (active) | 0.499 µM (active) | 7.98 µM (inactive) | 2.24 µM (inactive) | 3.5 µM (inactive) | 16.9 µM (inactive) | 2.53 µM (inactive) | 2.79 µM (inactive) | 10.5 µM (inactive) | 4.33 µM (inactive) | 4.26 µM (inactive) | 2.28 µM (inactive) | 0.94 µM (active) | 12.1 µM (inactive) | 8.97 µM (inactive) | 1.54 µM (inactive) | 1.7 µM (inactive) | 0.787 µM (active)
3 | COc1cc(C2c3cc4c(c(O)c3C(=O)C3CCC(=O)N32)OCO4)cc(OC)c1OC (stereo not given) | 48.8 | 42.9 µM (inactive) | 36.6 µM (inactive) | 23.9 µM (inactive) | 67.5 µM (inactive) | 79.8 µM (inactive) | 39.9 µM (inactive) | > 100 µM (inactive) | 92.5 µM (inactive) | 99.5 µM (inactive) | > 100 µM (inactive) | 38.3 µM (inactive) | 31.3 µM (inactive) | 52.5 µM (inactive) | 30.1 µM (inactive) | > 100 µM (inactive) | > 100 µM (inactive) | 38.8 µM (inactive) | 18.2 µM (inactive) | 5.52 µM (inactive)
4 | CC1=NN(c2nc(N)nc(/C(C#N)=C\c3ccc(-c4ccc([N+](=O)[O-])cc4)o3)n2)C(C)(C)C1 | > 100 | > 100 µM (inactive) | > 100 µM (inactive) | > 100 µM (inactive) | > 100 µM (inactive) | > 100 µM (inactive) | > 100 µM (inactive) | > 100 µM (inactive) | > 100 µM (inactive) | > 100 µM (inactive) | > 100 µM (inactive) | > 100 µM (inactive) | 0.807 µM (active) | > 100 µM (inactive) | > 100 µM (inactive) | > 100 µM (inactive) | > 100 µM (inactive) | > 100 µM (inactive) | > 100 µM (inactive) | > 100 µM (inactive)
5 | CN(C)CCNc1ccc2nnn3c4ccc(Cl)cc4c(=O)c1c23 | 2.16 | 1.88 µM (inactive) | 2.85 µM (inactive) | 2.94 µM (inactive) | 5 µM (inactive) | 6.19 µM (inactive) | 4.89 µM (inactive) | 4.14 µM (inactive) | 2.42 µM (inactive) | 14.4 µM (inactive) | 2.94 µM (inactive) | 2.06 µM (inactive) | 4.62 µM (inactive) | 1.6 µM (inactive) | 4.89 µM (inactive) | 5.19 µM (inactive) | 4.45 µM (inactive) | 2.76 µM (inactive) | 2.72 µM (inactive) | 1.18 µM (inactive)
6 | C/C(=N\O)c1ccc2ccc3ccccc3c2c1 | 28.9 | 28.3 µM (inactive) | 37.3 µM (inactive) | 19.2 µM (inactive) | 37.9 µM (inactive) | 43 µM (inactive) | 23.1 µM (inactive) | 52.2 µM (inactive) | > 100 µM (inactive) | 56.6 µM (inactive) | 23 µM (inactive) | 26.4 µM (inactive) | 51.3 µM (inactive) | 24.5 µM (inactive) | 18.9 µM (inactive) | 22.9 µM (inactive) | 15.3 µM (inactive) | 32.3 µM (inactive) | 31.8 µM (inactive) | 37.3 µM (inactive)
7 | C=C1CC(c2ccc(OCCCN3C(=O)c4ccccc4C3=O)c(OC)c2)OC1=O (stereo not given) | 2.71 | 2.58 µM (inactive) | 11.2 µM (inactive) | 11.1 µM (inactive) | 2.39 µM (inactive) | 4.7 µM (inactive) | 3.27 µM (inactive) | 13.7 µM (inactive) | 4.1 µM (inactive) | 2.56 µM (inactive) | 1.06 µM (active) | 5.61 µM (inactive) | 1.06 µM (active) | 1.74 µM (inactive) | 2.07 µM (inactive) | 3.63 µM (inactive) | 11 µM (inactive) | 12.4 µM (inactive) | 13.6 µM (inactive) | 1.4 µM (inactive)

From ChEMBL document CHEMBL1201862, “PubChem BioAssay data set” (2004)
